Source: patent publication US20260262643A1, “HERBICIDAL BENZOXAZINES” (FMC CORPORATION, priority 2022, published 2026)

How the values were obtained:
corn [1] = assay: Test A postemergence; type: in vivo, Zea mays
Outline: (§1)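 Weeds and crops in loam–sand blend were sprayed preemergence onto soil or postemergence at 2–10 cm (one- to two-leaf stage). Test chemicals were in a non-phytotoxic solvent with surfactant. After 10 days in the greenhouse, injury was rated visually against untreated controls on a 0 (no effect) to 100 (complete control) scale.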

barnyardgrass = assay: Test B flooded paddy test; type: in vivo, Echinochloa crus-galli; conditions: 250 g ai/ha, Flood, 13 days, 0 to 100 scale (0 no effect, 100 complete control)
Outline: (§2)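 Species grown to 2-leaf stage; pots flooded 3 cm above soil and compound applied directly to paddy water, depth maintained throughout. After 13 days in greenhouse, plants visually rated against controls on 0–100 scale (0 no effect, 100 complete control); dash means no result.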

pigweed, palmer [2] = assay: Test A preemergence; type: in vivo, Amaranthus palmeri
Outline: as §1

goosegrass [3] = assay: Test A postemergence; type: in vivo, Eleusine indica
Outline: as §1

foxtail, giant [4] = assay: Test A postemergence; type: in vivo, Setaria faberi
Outline: as §1

corn [5] = assay: Test A preemergence; type: in vivo, Zea mays
Outline: as §1

rice = assay: Test B flooded paddy test; type: in vivo, Oryza sativa; conditions: 250 g ai/ha, Flood, 13 days, 0 to 100 scale (0 no effect, 100 complete control)
Outline: as §2

foxtail, giant [6] = assay: Test A preemergence; type: in vivo, Setaria faberi
Outline: as §1

wheat [7] = assay: Test A postemergence; type: in vivo, Triticum aestivum
Outline: as §1

sedge, umbrella = assay: Test B flooded paddy test; type: in vivo, Cyperus difformis; conditions: 250 g ai/ha, Flood, 13 days, 0 to 100 scale (0 no effect, 100 complete control)
Outline: as §2

ducksalad = assay: Test B flooded paddy test; type: in vivo, Heteranthera limosa; conditions: 250 g ai/ha, Flood, 13 days, 0 to 100 scale (0 no effect, 100 complete control)
Outline: as §2

blackgrass [8] = assay: Test A postemergence; type: in vivo, Alopecurus myosuroides
Outline: as §1

goosegrass [9] = assay: Test A preemergence; type: in vivo, Eleusine indica
Outline: as §1

galium = assay: Test A postemergence; type: in vivo, Galium aparine
Outline: as §1

ryegrass, Italian [10] = assay: Test A preemergence; type: in vivo, Lolium multiflorum
Outline: as §1

kochia [11] = assay: Test A postemergence; type: in vivo, Bassia scoparia
Outline: as §1

wheat [12] = assay: Test A preemergence; type: in vivo, Triticum aestivum
Outline: as §1

ragweed [13] = assay: Test A preemergence; type: in vivo, Ambrosia artemisiifolia
Outline: as §1

pigweed, palmer [14] = assay: Test A postemergence; type: in vivo, Amaranthus palmeri
Outline: as §1

ryegrass, Italian [15] = assay: Test A postemergence; type: in vivo, Lolium multiflorum
Outline: as §1

soybean [16] = assay: Test A postemergence; type: in vivo, Glycine max
Outline: as §1

horseweed = assay: Test A postemergence; type: in vivo, Erigeron canadensis
Outline: as §1

oat, wild [17] = assay: Test A preemergence; type: in vivo, Avena fatua
Outline: as §1

soybean [18] = assay: Test A preemergence; type: in vivo, Glycine max
Outline: as §1

ragweed [19] = assay: Test A postemergence; type: in vivo, Ambrosia artemisiifolia
Outline: as §1

oat, wild [20] = assay: Test A postemergence; type: in vivo, Avena fatua
Outline: as §1

kochia [21] = assay: Test A preemergence; type: in vivo, Bassia scoparia
Outline: as §1

blackgrass [22] = assay: Test A preemergence; type: in vivo, Alopecurus myosuroides
Outline: as §1

[23] = 125 g ai/ha, postemergence, 10 days, visual injury, 0 to 100 scale (0 no effect, 100 complete control)
[24] = 500 g ai/ha, Postemergence, 0 to 100 scale
[25] = 125 g ai/ha, visual injury after 10 days, 0 to 100 scale, 0 is no effect, 100 is complete control
[26] = 500 g ai/ha, 0 to 100 scale (0 no effect, 100 complete control), 10 days
[27] = 125 g ai/ha, postemergence, 10 days, 0 to 100 scale, 0 no effect, 100 complete control
[28] = 500 g ai/ha, postemergence, 10 days, visual injury, 0 to 100 scale (0 no effect, 100 complete control)

Structure (SMILES): CC1CN(C(=O)c2cccc(-n3cncn3)c2)c2c(F)cccc2O1 (centres unmarked) [Compound 28]
- Plant response rating, Corn (corn [1]; [23]): 0
- Plant response rating, Corn (corn [1]; [24]): 20
- Plant response rating, Barnyardgrass (barnyardgrass): 10
- Plant response rating, Pigweed, Palmer (pigweed, palmer [2]; [25]): 0
- Plant response rating, Pigweed, Palmer (pigweed, palmer [2]; [26]): 50
- Plant response rating, Goosegrass (goosegrass [3]; [23]): 0
- Plant response rating, Goosegrass (goosegrass [3]; [24]): 50
- Plant response rating, Foxtail, Giant (foxtail, giant [4]; [23]): 0
- Plant response rating, Foxtail, Giant (foxtail, giant [4]; [24]): 70
- Plant response rating, Corn (corn [5]; [25]): 0
- Plant response rating, Corn (corn [5]; [26]): 30
- Plant response rating, Rice (rice): 0
- Plant response rating, Foxtail, Giant (foxtail, giant [6]; [25]): 30
- Plant response rating, Foxtail, Giant (foxtail, giant [6]; [26]): 90
- Plant response rating, Wheat (wheat [7]; [23]): 10
- Plant response rating, Wheat (wheat [7]; [24]): 30
- Plant response rating, Sedge, Umbrella (sedge, umbrella): 0
- Plant response rating, Ducksalad (ducksalad): 80
- Plant response rating, Blackgrass (blackgrass [8]; [23]): 30
- Plant response rating, Blackgrass (blackgrass [8]; [24]): 80
- Plant response rating, Goosegrass (goosegrass [9]; [25]): 20
- Plant response rating, Goosegrass (goosegrass [9]; [26]): 80
- Plant response rating, Galium (galium; [23]): 50
- Plant response rating, Galium (galium; [24]): 50
- Plant response rating, Ryegrass, Italian (ryegrass, Italian [10]; [25]): 40
- Plant response rating, Ryegrass, Italian (ryegrass, Italian [10]; [26]): 90
- Plant response rating, Kochia (kochia [11]; [23]): 0
- Plant response rating, Kochia (kochia [11]; [24]): 20
- Plant response rating, Wheat (wheat [12]; [25]): 0
- Plant response rating, Wheat (wheat [12]; [26]): 10
- Plant response rating, Ragweed (ragweed [13]; [25]): 0
- Plant response rating, Ragweed (ragweed [13]; [26]): 20
- Plant response rating, Pigweed, Palmer (pigweed, palmer [14]; [23]): 0
- Plant response rating, Pigweed, Palmer (pigweed, palmer [14]; [24]): 20
- Plant response rating, Ryegrass, Italian (ryegrass, Italian [15]; [23]): 0
- Plant response rating, Ryegrass, Italian (ryegrass, Italian [15]; [24]): 70
- Plant response rating, Soybean (soybean [16]; [23]): 90
- Plant response rating, Soybean (soybean [16]; [24]): 90
- Plant response rating, Horseweed (horseweed; [23]): 0
- Plant response rating, Horseweed (horseweed; [24]): 0
- Plant response rating, Oat, Wild (oat, wild [17]; [25]): 0
- Plant response rating, Oat, Wild (oat, wild [17]; [26]): 0
- Plant response rating, Soybean (soybean [18]; [25]): 0
- Plant response rating, Soybean (soybean [18]; [26]): 0
- Plant response rating, Ragweed (ragweed [19]; [23]): 0
- Plant response rating, Ragweed (ragweed [19]; [24]): 0
- Plant response rating, Oat, Wild (oat, wild [20]; [23]): 20
- Plant response rating, Oat, Wild (oat, wild [20]; [24]): 30
- Plant response rating, Kochia (kochia [21]; [25]): 0
- Plant response rating, Kochia (kochia [21]; [26]): 20
- Plant response rating, Blackgrass (blackgrass [22]; [25]): 0
- Plant response rating, Blackgrass (blackgrass [22]; [26]): 60

Structure (SMILES): CCc1ccc(-n2cnc(C3CC3)n2)cc1C(=O)N1C[C@H](C)Oc2c(Cl)cccc21 [Compound 103]
- Corn plant response rating (corn [1]; [27]): 10
- Plant response rating, Corn (corn [1]; [28]): 80
- Plant response rating, Barnyardgrass (barnyardgrass): 20
- Plant response rating, Pigweed, Palmer (pigweed, palmer [2]; [25]): 90
- Plant response rating, Pigweed, Palmer (pigweed, palmer [2]; [26]): 100
- Goosegrass plant response rating (goosegrass [3]; [27]): 70
- Plant response rating, Goosegrass (goosegrass [3]; [28]): 100
- Foxtail, Giant plant response rating (foxtail, giant [4]; [27]): 90
- Plant response rating, Foxtail, Giant (foxtail, giant [4]; [28]): 90
- Plant response rating, Corn (corn [5]; [25]): 20
- Plant response rating, Corn (corn [5]; [26]): 20
- Plant response rating, Rice (rice): 10
- Plant response rating, Foxtail, Giant (foxtail, giant [6]; [25]): 100
- Plant response rating, Foxtail, Giant (foxtail, giant [6]; [26]): 100
- Wheat plant response rating (wheat [7]; [27]): 10
- Plant response rating, Wheat (wheat [7]; [28]): 30
- Plant response rating, Sedge, Umbrella (sedge, umbrella): 100
- Plant response rating, Ducksalad (ducksalad): 35
- Blackgrass plant response rating (blackgrass [8]; [27]): 60
- Plant response rating, Blackgrass (blackgrass [8]; [28]): 90
- Plant response rating, Goosegrass (goosegrass [9]; [25]): 100
- Plant response rating, Goosegrass (goosegrass [9]; [26]): 100
- Galium plant response rating (galium; [27]): 100
- Plant response rating, Galium (galium; [28]): 100
- Plant response rating, Ryegrass, Italian (ryegrass, Italian [10]; [25]): 80
- Plant response rating, Ryegrass, Italian (ryegrass, Italian [10]; [26]): 90
- Kochia plant response rating (kochia [11]; [27]): 80
- Plant response rating, Kochia (kochia [11]; [28]): 100
- Plant response rating, Wheat (wheat [12]; [25]): 0
- Plant response rating, Wheat (wheat [12]; [26]): 0
- Plant response rating, Ragweed (ragweed [13]; [25]): 0
- Plant response rating, Ragweed (ragweed [13]; [26]): 0
- Pigweed, Palmer plant response rating (pigweed, palmer [14]; [27]): 90
- Plant response rating, Pigweed, Palmer (pigweed, palmer [14]; [28]): 100
- Ryegrass, Italian plant response rating (ryegrass, Italian [15]; [27]): 50
- Plant response rating, Ryegrass, Italian (ryegrass, Italian [15]; [28]): 60
- Soybean plant response rating (soybean [16]; [27]): 100
- Plant response rating, Soybean (soybean [16]; [28]): 100
- Horseweed plant response rating (horseweed; [27]): 0
- Plant response rating, Horseweed (horseweed; [28]): 10
- Plant response rating, Oat, Wild (oat, wild [17]; [25]): 40
- Plant response rating, Oat, Wild (oat, wild [17]; [26]): 40
- Plant response rating, Soybean (soybean [18]; [25]): 30
- Plant response rating, Soybean (soybean [18]; [26]): 60
- Ragweed plant response rating (ragweed [19]; [27]): 0
- Plant response rating, Ragweed (ragweed [19]; [28]): 40
- Oat, Wild plant response rating (oat, wild [20]; [27]): 30
- Plant response rating, Oat, Wild (oat, wild [20]; [28]): 80
- Plant response rating, Kochia (kochia [21]; [25]): 50
- Plant response rating, Kochia (kochia [21]; [26]): 90
- Plant response rating, Blackgrass (blackgrass [22]; [25]): 50
- Plant response rating, Blackgrass (blackgrass [22]; [26]): 80
